Values joined by “and” are separate entries in the source; they are usually repeats but may differ in a detail not shown here. Equal entries are not always repeated. Where two headings read alike, the source gives them in different places.
Key:
Test in all cases: MIC of compounds alone and combined with antibacterials, broth microdilution (CLSI)
Format in all cases: cell-based
[1] = test system: Serratia marcescens (SMA) isolates
Method in brief: (§1)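 Broth microdilution in cation-adjusted Mueller-Hinton broth, inoculum 5.10^5 CFU/mL, 16-20 h at 35° C in ambient air, on genotyped isolates. Compound MIC, alone or with an antibacterial, taken visually as lowest concentration preventing growth; antibacterial MIC determined at each compound concentration.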

[2] = test system: Providencia rettgeri (PRE) isolates
Method in brief: as §1

[3] = test system: Klebsiella pneumoniae (KPN) isolates
Method in brief: as §1

Question: Which results are given for `CC1(C)S[C@@H]2[C@H](NC(=O)[C@H](N)c3ccc(O)cc3)C(=O)N2[C@H]1C(=O)O` [AMX, Amoxicillin]?
Answer: MIC [1]: >128 µg/mL; MIC ATB in combination [1]: >128 µg/mL and 128 µg/mL; MIC ATB in combination ([1]; SMA UFR30, AF2 @ 8 μg/mL): 64 µg/mL; MIC ATB in combination ([1]; SMA UFR239, CLA @ 4 μg/mL): 64 µg/mL; MIC ([1]; strain SMA UFR30, genotype OXA-405): >256 µg/mL; MIC ([1]; strain SMA UFR134, genotype TEM-1, BES-1): >128 µg/mL; MIC ([1]; strain SMA UFR135, genotype TEM-1, KPC-2): >128 µg/mL; MIC ([1]; strain SMA UFR136, genotype TEM-1, SHV-12, KPC-2): >128 µg/mL; MIC ([1]; strain SMA UFR140, genotype IMP-1): >128 µg/mL; MIC ([1]; strain SMA UFR141, genotype OXA-48): >128 µg/mL; MIC ([1]; strain SMA UFR142, genotype OXA-48): >128 µg/mL; MIC ([1]; strain SMA UFR143, genotype CTX-M-15, OXA-1, OXA-48): >128 µg/mL; MIC ([1]; strain SMA UFR238, genotype OXA-48): >128 µg/mL; MIC ATB in combination [2]: >128 µg/mL; MIC ([2]; strain PRE UFR96, genotype CTX-M-15, NDM-1): >128 µg/mL; MIC ([2]; strain PRE UFR97, genotype TEM-1, NDM-1): >128 µg/mL; MIC ([2]; strain PRE UFR99, genotype OXA-1, OXA-181): >128 µg/mL; MIC ([2]; strain PRE UFR236, genotype TEM-1, OXA-48): >128 µg/mL; MIC [3]: >128 µg/mL; MIC ATB in combination [3]: >128 µg/mL and 128 µg/mL and <128 µg/mL; MIC ATB in combination ([3]; KPN 6299, AF2 @ 8 μg/mL): 2 µg/mL; MIC ATB in combination ([3]; KPN 6299, CLA @ 4 μg/mL): >512 µg/mL; MIC ATB in combination ([3]; KPN 110376, AF2 @ 8 μg/mL): 0.5 µg/mL; MIC ATB in combination ([3]; KPN 131119, CLA @ 4 μg/mL): >512 µg/mL; MIC ATB in combination ([3]; KPN 160143, AF2 @ 8 μg/mL): <0.25 µg/mL; MIC ATB in combination ([3]; KPN 190551, AF2 @ 8 μg/mL): <0.25 µg/mL; MIC ATB in combination ([3]; KPN 200047, AF2 @ 8 μg/mL): <0.25 µg/mL; MIC ATB in combination ([3]; KPN 200047, CLA @ 4 μg/mL): 32 µg/mL; MIC ATB in combination ([3]; KPN 200327, AF2 @ 8 μg/mL): <0.25 µg/mL; MIC ATB in combination ([3]; KPN 200327, CLA @ 4 μg/mL): 32 µg/mL; MIC ATB in combination ([3]; KPN 260251, AF2 @ 8 μg/mL): 4 µg/mL; MIC ATB in combination ([3]; KPN 260376, AF2 @ 8 μg/mL): <0.25 µg/mL; MIC ATB in combination ([3]; KPN 270077, AF2 @ 8 μg/mL): 32 µg/mL; MIC ATB in combination ([3]; KPN 270077, CLA @ 4 μg/mL): 32 µg/mL; MIC ATB in combination ([3]; KPN 700603, AF2 @ 8 μg/mL): 4 µg/mL; MIC ATB in combination ([3]; KPN 700603, CLA @ 4 μg/mL): 8 µg/mL; MIC ATB in combination ([3]; KPN ARA, AF2 @ 8 μg/mL): <=0.25 μg/mL; MIC ATB in combination ([3]; KPN BAA-1898, CLA @ 4 μg/mL): >512 µg/mL; MIC ATB in combination ([3]; KPN LIB, AF2 @ 8 μg/mL): <=0.25 μg/mL; MIC ATB in combination ([3]; KPN LIB, CLA @ 4 μg/mL): >512 µg/mL; MIC ATB in combination ([3]; KPN UFR22_O, AF2 @ 8 μg/mL): 0.5 µg/mL; MIC ATB in combination ([3]; KPN UFR23, AF2 @ 8 μg/mL): 4 µg/mL; MIC ATB in combination ([3]; KPN UFR24, AF2 @ 8 μg/mL): 32 µg/mL; MIC ATB in combination ([3]; KPN UFR25, AF2 @ 8 μg/mL): <0.25 µg/mL; MIC ATB in combination ([3]; KPN UFR28, AF2 @ 8 μg/mL): <=0.25 μg/mL; MIC ATB in combination ([3]; KPN UFR33, AF2 @ 8 μg/mL): 8 µg/mL; MIC ATB in combination ([3]; KPN UFR43, AF2 @ 8 μg/mL): <0.25 µg/mL; MIC ATB in combination ([3]; KPN UFR53, AF2 @ 8 μg/mL): <0.25 µg/mL; MIC ATB in combination ([3]; KPN UFR77, AF2 @ 8 μg/mL): <0.25 µg/mL; MIC ATB in combination ([3]; KPN UFR80, AF2 @ 8 μg/mL): 64 µg/mL; MIC ATB in combination ([3]; KPN UFR218, CLA @ 4 μg/mL): 32 µg/mL; MIC ([3]; strain KPN 6299, genotype TEM-1, SHV-11, OXA-163): >1024 µg/mL; MIC ([3]; strain KPN 110376, genotype TEM-1, SHV-1, CTX-M-15, OXA-1, OXA-48): >256 µg/mL; MIC ([3]; strain KPN 121206, genotype SHV-1, NDM-1): >256 µg/mL; MIC ([3]; strain KPN 131119, genotype TEM-1, SHV-11, CTX-M-15, OXA-1, OXA-48): >256 µg/mL; MIC ([3]; strain KPN 140347, genotype CTX-M-15, NDM-1, antibiotic alone): >128 µg/mL; MIC ([3]; strain KPN 140513, genotype TEM-1, SHV-11, CTX-M-15, KPC-3): >256 µg/mL; MIC ([3]; strain KPN 160143, genotype TEM-1, SHV-1, CTX-M-15, KPC-2, OXA-1): >256 µg/mL; MIC ([3]; strain KPN 190128, genotype TEM-1, SHV-32, CTX-M-15, OXA-1): >256 µg/mL; MIC ([3]; strain KPN 190270, genotype TEM-1, SHV-76, CTX-M-15, OXA-1): >256 µg/mL; MIC ([3]; strain KPN 190425, genotype TEM-1, SHV-1, CTX-M-15, OXA-1): >256 µg/mL; MIC ([3]; strain KPN 190551, genotype TEM-1, SHV-1, CTX-M-15, OXA-1): >256 µg/mL; MIC ([3]; strain KPN 200047, genotype TEM-1, SHV-32, CTX-M-15, OXA-1): >256 µg/mL; MIC ([3]; strain KPN 200327, genotype TEM-1, SHV-1, CTX-M-15, OXA-1): >256 µg/mL; MIC ([3]; strain KPN 260251, genotype TEM-1, SHV-11, SHV-12, CTX-M-15, KPC-2): >256 µg/mL; MIC ([3]; strain KPN 260252, genotype TEM-1, SHV-11, KPC-3): >256 µg/mL; MIC ([3]; strain KPN 260376, genotype SHV-1, SHV-49, OXA-1): >256 µg/mL; MIC ([3]; strain KPN 270077, genotype TEM-1, SHV-1, CTX-M-15): >256 µg/mL; MIC ([3]; strain KPN 700603, genotype SHV-18, OXA-2): >256 µg/mL; MIC ([3]; strain KPN ARA, genotype TEM-1, SHV-11, CTX-M-15, OXA-1, OXA-48): >256 µg/mL; MIC ([3]; strain KPN BAA-1898, genotype TEM-1, SHV-11, SHV-12, KPC-2): >1024 µg/mL; MIC ([3]; strain KPN LIB, genotype SHV-11, OXA-48): >256 µg/mL; MIC ([3]; strain KPN UFR22_O, genotype TEM-1, SHV-1, OXA-48): >256 µg/mL; MIC ([3]; strain KPN UFR23, genotype TEM-1, SHV-1, OXA-48): >256 µg/mL

Reference: patent US20200017495A1, “NOVEL HETEROCYCLIC COMPOUNDS AND THEIR USE IN PREVENTING OR TREATING BACTERIAL INFECTIONS” (priority 2017, published 2020)
